Test results taken from ChEMBL document CHEMBL3046561, “Feeding deterrents from Dictamnus dasycarpus Turcz against two stored-product insects” (J Agric Food Chem, 2002).

Experiments:
[1] = test system: Sitophilus zeamais; experiment: Antifeedant activity against adult of Sitophilus zeamais assessed as mortality at 30 ppm after 3 days relative to control; format: functional; conditions: 72 h
[2] = test system: Tribolium castaneum; experiment: Antifeedant activity against adult of Tribolium castaneum (red flour beetle) after 3 days; format: functional, organism-based
[3] = test system: Sitophilus zeamais; experiment: Antifeedant activity against adult of Sitophilus zeamais assessed as relative consumption rate at 10 ppm after 3 days relative to control; format: functional
[4] = test system: Sitophilus zeamais; experiment: Antifeedant activity against adult of Sitophilus zeamais assessed as relative consumption rate at 30 ppm after 3 days relative to control; format: functional
[5] = test system: Sitophilus zeamais; experiment: Antifeedant activity against adult of Sitophilus zeamais assessed as relative growth rate at 300 ppm after 3 days relative to control; format: functional
[6] = test system: Tribolium castaneum; experiment: Antifeedant activity against adult of Tribolium castaneum (red flour beetle) assessed as efficiency of conversion of ingested food at 10 ppm after 3 days relative to control; format: functional
[7] = test system: Tribolium castaneum; experiment: Antifeedant activity against adult of Tribolium castaneum (red flour beetle) assessed as relative growth rate at 10 ppm after 3 days relative to control; format: functional
[8] = test system: Tribolium castaneum; experiment: Antifeedant activity against larvae of Tribolium castaneum (red flour beetle) assessed as relative growth rate at 100 ppm after 3 days relative to control; format: functional
[9] = test system: Tribolium castaneum; experiment: Antifeedant activity against adult of Tribolium castaneum (red flour beetle) assessed as feeding deterrence index at 3 ppm after 3 days relative to control; format: functional
[10] = test system: Tribolium castaneum; experiment: Antifeedant activity against adult of Tribolium castaneum (red flour beetle) assessed as relative growth rate at 30 ppm after 3 days relative to control; format: functional
[11] = test system: Tribolium castaneum; experiment: Antifeedant activity against larvae of Tribolium castaneum (red flour beetle) assessed as efficiency of conversion of ingested food at 100 ppm after 3 days relative to control; format: functional, Instar larval stage
[12] = test system: Tribolium castaneum; experiment: Antifeedant activity against larvae of Tribolium castaneum (red flour beetle) assessed as relative consumption rate at 3 ppm after 3 days relative to control; format: functional
[13] = test system: Sitophilus zeamais; experiment: Antifeedant activity against adult of Sitophilus zeamais assessed as efficiency of conversion of ingested food at 30 ppm after 3 days relative to control; format: functional
[14] = test system: Tribolium castaneum; experiment: Antifeedant activity against adult of Tribolium castaneum (red flour beetle) assessed as relative growth rate at 100 ppm after 3 days relative to control; format: functional
[15] = test system: Tribolium castaneum; experiment: Antifeedant activity against adult of Tribolium castaneum (red flour beetle) assessed as relative consumption rate at 3 ppm after 3 days relative to control; format: functional
[16] = test system: Sitophilus zeamais; experiment: Antifeedant activity against adult of Sitophilus zeamais assessed as efficiency of conversion of ingested food at 10 ppm after 3 days relative to control; format: functional
[17] = test system: Sitophilus zeamais; experiment: Antifeedant activity against adult of Sitophilus zeamais assessed as relative consumption rate at 100 ppm after 3 days relative to control; format: functional
[18] = test system: Sitophilus zeamais; experiment: Antifeedant activity against adult of Sitophilus zeamais after 3 days; format: functional, organism-based
[19] = test system: Sitophilus zeamais; experiment: Antifeedant activity against adult of Sitophilus zeamais assessed as efficiency of conversion of ingested food at 3 ppm after 3 days relative to control; format: functional
[20] = test system: Sitophilus zeamais; experiment: Antifeedant activity against adult of Sitophilus zeamais assessed as relative growth rate at 10 ppm after 3 days relative to control; format: functional
[21] = test system: Tribolium castaneum; experiment: Antifeedant activity against larvae of Tribolium castaneum (red flour beetle) assessed as mortality at 3 ppm after 3 days relative to control; format: functional; conditions: 72 h
[22] = test system: Tribolium castaneum; experiment: Antifeedant activity against larvae of Tribolium castaneum (red flour beetle) assessed as relative consumption rate at 30 ppm after 3 days relative to control; format: functional
[23] = test system: Sitophilus zeamais; experiment: Antifeedant activity against adult of Sitophilus zeamais assessed as efficiency of conversion of ingested food at 100 ppm after 3 days relative to control; format: functional
[24] = test system: Tribolium castaneum; experiment: Antifeedant activity against larvae of Tribolium castaneum (red flour beetle) assessed as efficiency of conversion of ingested food at 3 ppm after 3 days relative to control; format: functional
[25] = test system: Tribolium castaneum; experiment: Antifeedant activity against larvae of Tribolium castaneum (red flour beetle) assessed as mortality at 30 ppm after 3 days relative to control; format: functional; conditions: 72 h
[26] = test system: Tribolium castaneum; experiment: Antifeedant activity against larvae of Tribolium castaneum (red flour beetle) after 3 days; format: functional, organism-based
[27] = test system: Tribolium castaneum; experiment: Antifeedant activity against adult of Tribolium castaneum (red flour beetle) assessed as relative consumption rate at 10 ppm after 3 days relative to control; format: functional
[28] = test system: Tribolium castaneum; experiment: Antifeedant activity against adult of Tribolium castaneum (red flour beetle) assessed as feeding deterrence index at 10 ppm after 3 days relative to control; format: functional
[29] = test system: Tribolium castaneum; experiment: Antifeedant activity against adult of Tribolium castaneum (red flour beetle) assessed as mortality at 30 ppm after 3 days relative to control; format: functional; conditions: 72 h
[30] = test system: Tribolium castaneum; experiment: Antifeedant activity against larvae of Tribolium castaneum (red flour beetle) assessed as efficiency of conversion of ingested food at 300 ppm after 3 days relative to control; conditions: Instar larval stage, 72 h

Compound	mortality at 30 ppm [1]	Activity [3]	Activity [4]	Activity [5]	Activity [6]	Activity [7]	FDI [9]	Activity [11]	Activity [12]	Activity [13]	Activity [14]	Activity [15]	Activity [16]	Activity [17]	Activity [19]	Activity [20]	mortality at 3 ppm [21]	Activity [22]	Activity [23]	Activity [24]	also measured
CC1=C2C(=O)O[C@@H](c3ccoc3)[C@]2(C)CCC1 [FRAXINELLONE]	2%	120.27 µg/mg/day	113.45 µg/mg/day	4.26 µg/mg/day	21.98%	23.64 µg/mg/day	8.46%	13.65%	233.06 µg/mg/day	9.57%	9.41 µg/mg/day	140.68 µg/mg/day	11.25%	79.29 µg/mg/day	11.41%	13.29 µg/mg/day	0%	163.61 µg/mg/day	9.66%	22.62%	EC50 [2]: 36.4 ppm; Activity [8]: 11.71 µg/mg/day; Activity [10]: 19.84 µg/mg/day; EC50 [18]: 71.2 ppm; mortality at 30 ppm [25]: 0%; EC50 [26]: 29.1 ppm; Activity [27]: 120.94 µg/mg/day; FDI [28]: 18.64%; mortality at 30 ppm [29]: 0%
COc1c2ccccc2nc2occc12 [DICTAMNINE]	0%	110.95 µg/mg/day	86.75 µg/mg/day	3.21 µg/mg/day	19.91%	27.3 µg/mg/day	7.31%	17.43%	254.2 µg/mg/day	9.78%	13.49 µg/mg/day	132.89 µg/mg/day	10.42%	52.65 µg/mg/day	9.1%	14.32 µg/mg/day	0%	168.23 µg/mg/day	9.73%	19.8%	mortality at 300 ppm [30]: 13.2%; mortality at 30 ppm [25]: 0%; Activity [27]: 129.71 µg/mg/day; FDI [28]: 17.06%; mortality at 30 ppm [29]: 0%
